Laboratory results reported in patent US10448639B2, “Fungicidal pyrazoles” (FMC CORPORATION, priority 2009, dated 2019).
Where two headings read alike, the source gives them in different places.

Assays:
[1] = system: Alternaria solani; assay: Test C: tomato early blight, preventive spray on tomato seedlings, visual disease rating; conditions: for pest or weed control at 200 µg/mL: Alternaria solani, in Solanum lycopersicum, 168 h; for Test C rating (% disease control) / Test C disease control rating: tomato early blight, 100 = 100% disease control; for Test C disease control rating: 0 = no disease control relative to controls
[2] = system: Botrytis cinerea; assay: Test B: tomato Botrytis, preventive spray on tomato seedlings, visual disease rating; conditions: for pest or weed control at 200 µg/mL: Botrytis cinerea, in Solanum lycopersicum, 120 h; for Test B rating (% disease control) / Test B disease control rating: tomato Botrytis, 100 = 100% disease control; for Test B disease control rating: 0 = no disease control relative to controls
[3] = system: Septoria nodorum; assay: Test F: Septoria glume blotch, preventive spray on wheat seedlings, visual disease rating; conditions: for pest or weed control at 200 µg/mL: Parastagonospora nodorum, in Triticum aestivum, 192 h; for Test F rating (% disease control) / Test F disease control rating: 100 = 100% disease control; for Test F disease control rating: 0 = no disease control relative to controls
[4] = system: Puccinia recondita f. sp. tritici; assay: Test H: wheat leaf rust, curative spray on inoculated wheat seedlings, visual disease rating; conditions: for pest or weed control at 200 µg/mL: 144 h; for Test H rating (% disease control) / Test H disease control rating: wheat leaf rust, 100 = 100% disease control; for Test H disease control rating: sprayed after inoculation, 0 = no disease control relative to controls
[5] = system: Erysiphe graminis f sp. tritici; assay: Test J: wheat powdery mildew, preventive spray on wheat seedlings, visual disease rating; conditions: for pest or weed control at 200 µg/mL: Blumeria graminis, in Triticum aestivum, 192 h; for Test J rating (% disease control) / Test J disease control rating: wheat powdery mildew, 100 = 100% disease control; for Test J disease control rating: sprayed the day before inoculation, 0 = no disease control relative to controls
[6] = system: Septoria tritici; assay: Test G: wheat leaf blotch, preventive spray on wheat seedlings, visual disease rating; conditions: for pest or weed control at 200 µg/mL: Zymoseptoria tritici, in Triticum aestivum, 504 h; for Test G rating (% disease control) / Test G disease control rating: wheat leaf blotch, 100 = 100% disease control; for Test G disease control rating: sprayed the day before inoculation, 0 = no disease control relative to controls
[7] = system: Puccinia recondita f. sp. tritici; assay: Test I: wheat leaf rust, preventive spray on wheat seedlings, visual disease rating; conditions: for pest or weed control at 200 µg/mL: 192 h; for Test I rating (% disease control) / Test I disease control rating: wheat leaf rust, 100 = 100% disease control; for Test I disease control rating: sprayed the day before inoculation, 0 = no disease control relative to controls
[8] = read-out: Test C disease control rating
[9] = read-out: Test B disease control rating
[10] = read-out: Test F disease control rating
[11] = read-out: Test H disease control rating
[12] = read-out: Test J disease control rating
[13] = read-out: Test G disease control rating
[14] = read-out: Test I disease control rating
[15] = 0 = no control relative to controls
[16] = Septoria glume blotch, 0 = no control relative to controls
[17] = curative, 0 = no control relative to controls
[18] = preventive, 0 = no control relative to controls
[19] = preventive spray, 0 = no control
[20] = Septoria glume blotch on wheat, preventive spray, 0 = no control

Cc1nn(C)c(Nc2c(F)cc(F)cc2Cl)c1-c1ccc(F)cc1F [Compound 343, N-(2-chloro-4,6-difluorophenyl)-4-(2,4-difluorophenyl)-1,3-dimethyl-1H-pyrazol-5-amine]
pest or weed control at 200 µg/mL [1, 8]: 100% | pest or weed control at 200 µg/mL [2, 9]: 100% | pest or weed control at 200 µg/mL [3, 10]: 97% | pest or weed control at 200 µg/mL [4, 11]: 91% | pest or weed control at 200 µg/mL [5, 12]: 100% | pest or weed control at 200 µg/mL [6, 13]: 100% | pest or weed control at 200 µg/mL [7, 14]: 100%

Cc1nn(C)c(Nc2ccc(F)cc2F)c1-c1ccc(Cl)cc1Cl [Compound 69, 4-(2,4-Dichlorophenyl)-N-(2,4-difluorophenyl)-1,3-dimethyl-1H-pyrazol-5-amine]
pest or weed control at 200 µg/mL ([1]; read-out: Test C rating (% disease control)): 73% | pest or weed control at 200 µg/mL ([2]; read-out: Test B rating (% disease control)): 100% | pest or weed control at 200 µg/mL ([3]; read-out: Test F rating (% disease control)): 60% | pest or weed control at 200 µg/mL ([4]; read-out: Test H rating (% disease control)): 91% | pest or weed control at 200 µg/mL ([5]; read-out: Test J rating (% disease control)): 100% | pest or weed control at 200 µg/mL ([6]; read-out: Test G rating (% disease control)): 99% | pest or weed control at 200 µg/mL ([7]; read-out: Test I rating (% disease control)): 99%

Cc1nn(C)c(Nc2c(F)cc(Cl)cc2F)c1-c1ccc(F)cc1F [Compound 357, N-(4-chloro-2,6-difluorophenyl)-4-(2,4-difluorophenyl)-1,3-dimethyl-1H-pyrazol-5-amine]
pest or weed control at 200 µg/mL [1, 8]: 86% | pest or weed control at 200 µg/mL [2, 9]: 100% | pest or weed control at 200 µg/mL [3, 10]: 87% | pest or weed control at 200 µg/mL [4, 11]: 0% | pest or weed control at 200 µg/mL [5, 12]: 100% | pest or weed control at 200 µg/mL [6, 13]: 100% | pest or weed control at 200 µg/mL [7, 14]: 99%

COc1ccc(F)c(Nc2c(-c3c(F)cccc3F)c(C)nn2C)c1 [compound 216]
Test C rating (% disease control) [1, 15]: 0% | Test B rating (% disease control) [2, 15]: 96% | Test F rating (% disease control) [3, 16]: 0% | Test H rating (% disease control) [4, 17]: 0% | Test J rating (% disease control) [5, 15]: 99% | Test G rating (% disease control) [6, 15]: 76% | Test I rating (% disease control) [7, 18]: 26%

Cc1nn(C)c(Nc2c(F)cc(F)cc2F)c1-c1c(F)cccc1F [compound 300]
Test C rating (% disease control) [1, 15]: 99% | Test B rating (% disease control) [2, 15]: 100% | Test F rating (% disease control) [3, 16]: 82% | Test H rating (% disease control) [4, 17]: 9% | Test J rating (% disease control) [5, 15]: 100% | Test G rating (% disease control) [6, 15]: 100% | Test I rating (% disease control) [7, 18]: 99%

Cc1nn(C)c(Nc2ccc(F)cc2)c1-c1c(Cl)cccc1Cl [compound 337]
Test C disease control rating [1]: 0% | Test B disease control rating [2]: 99% | Test F disease control rating ([3]; Septoria glume blotch on wheat): 0% | Test H disease control rating [4]: 9% | Test J disease control rating [5]: 98% | Test G disease control rating [6]: 99% | Test I disease control rating [7]: 41%

Cc1nn(C)c(Nc2cc(C#N)ccc2Cl)c1-c1ccc(F)cc1F [compound 291]
Test C rating (% disease control) [1, 15]: 0% | Test B rating (% disease control) [2, 15]: 99% | Test F rating (% disease control) [3, 16]: 0% | Test H rating (% disease control) [4, 17]: 0% | Test J rating (% disease control) [5, 15]: 43% | Test G rating (% disease control) [6, 15]: 98% | Test I rating (% disease control) [7, 18]: 85%

COc1cc(F)c(-c2c(C)nn(C)c2Oc2ccc(Cl)cc2Cl)c(F)c1 [compound 40]
Test C rating (% disease control) [1, 19]: 0% | Test B rating (% disease control) [2, 19]: 99% | Test F rating (% disease control) [3, 20]: 0% | Test H rating (% disease control) ([4]; curative spray, 0 = no control): 92% | Test J rating (% disease control) [5, 19]: 99% | Test G rating (% disease control) [6, 19]: 94% | Test I rating (% disease control) [7, 19]: 99%

Cc1nn(C)c(Oc2cc(F)cc(C#N)c2)c1-c1ccc(F)cc1Cl [compound 116]
Test C rating (% disease control) [1, 19]: 94% | Test B rating (% disease control) [2, 19]: 100% | Test F rating (% disease control) [3, 20]: 73% | Test H rating (% disease control) ([4]; curative spray, 0 = no control): 16% | Test J rating (% disease control) [5, 19]: 99% | Test G rating (% disease control) [6, 19]: 100% | Test I rating (% disease control) [7, 19]: 97%

COc1cc(Cl)c(Nc2c(-c3ccc(F)cc3Cl)c(C)nn2C)c(Cl)c1 [compound 296]
Test C rating (% disease control) [1, 15]: 0% | Test B rating (% disease control) [2, 15]: 99% | Test F rating (% disease control) [3, 16]: 0% | Test H rating (% disease control) [4, 17]: 0% | Test G rating (% disease control) [6, 15]: 100% | Test I rating (% disease control) [7, 18]: 99%

COc1cc(F)c(-c2c(C)nn(C)c2Oc2ccc(Br)c(OC)c2)c(F)c1 [compound 212]
Test C rating (% disease control) [1, 15]: 17% | Test B rating (% disease control) [2, 15]: 0% | Test H rating (% disease control) [4, 17]: 0% | Test G rating (% disease control) [6, 15]: 98%

COc1cc(Cl)c(Nc2c(-c3ccc(F)cc3Br)c(C)nn2C)c(Cl)c1 [compound 323]
Test C disease control rating [1]: 0% | Test B disease control rating [2]: 98% | Test F disease control rating ([3]; Septoria glume blotch on wheat): 0% | Test H disease control rating [4]: 0% | Test G disease control rating [6]: 98% | Test I disease control rating [7]: 94%

Cc1nn(C)c(Nc2c(Cl)cc(F)cc2Cl)c1-c1ccc(F)cc1Br [compound 316]
Test C disease control rating [1]: 0% | Test B disease control rating [2]: 99% | Test F disease control rating ([3]; Septoria glume blotch on wheat): 0% | Test H disease control rating [4]: 9% | Test J disease control rating [5]: 96% | Test I disease control rating [7]: 99%

Cc1nn(C)c(Nc2c(Cl)cc(Br)cc2Cl)c1-c1ccc(F)cc1Cl [compound 403]
Test C disease control rating [1]: 0% | Test B disease control rating [2]: 99% | Test F disease control rating ([3]; Septoria glume blotch on wheat): 0% | Test H disease control rating [4]: 99% | Test J disease control rating [5]: 99% | Test I disease control rating [7]: 100%

Cc1nn(C)c(Nc2c(F)cc(Cl)cc2Cl)c1-c1ccc(F)cc1Cl [Compound 367, 4-(2-chloro-4-fluorophenyl)-N-(2,4-dichloro-6-fluorophenyl)-1,3-dimethyl-1H-pyrazol-5-amine]
pest or weed control at 200 µg/mL [1, 8]: 100% | pest or weed control at 200 µg/mL [2, 9]: 100% | pest or weed control at 200 µg/mL [3, 10]: 100% | pest or weed control at 200 µg/mL [4, 11]: 100% | pest or weed control at 200 µg/mL [5, 12]: 100% | pest or weed control at 200 µg/mL [7, 14]: 100%

Cc1nn(C)c(Nc2c(F)cc(F)cc2Cl)c1-c1ccc(Cl)cc1Cl [compound 391]
Test C disease control rating [1]: 99% | Test B disease control rating [2]: 100% | Test F disease control rating ([3]; Septoria glume blotch on wheat): 73% | Test H disease control rating [4]: 31% | Test J disease control rating [5]: 99% | Test I disease control rating [7]: 99%
